Among the data in patent US9321764B2, “Dihydro-pyrrolopyridinone inhibitors” (AbbVie Inc., priority 2013, dated 2016) are Ki values, retold here.

One test addresses T1, BRD4 (BDI_K57-E168) (Homo sapiens, UniProt O60885).
T1 construct: BD1: amino acids K57-E168; made in house
Put plainly: TR-FRET bromodomain binding assay, first bromodomain of BRD4. The settings on record: His-tagged BD1, 100 nM Alexa647 probe; TR-FRET protocol A-E given per row. The protocol: (§1) A time-resolved fluorescence resonance energy transfer (TR-FRET) assay was used to determine the affinities of compounds of the Examples listed in Table 1 for each bromodomain of BRD4. His-tagged first (BD1: amino acids K57-E168) and second (BD2: amino acids E352-E168) bromodomains of BRD4 were expressed and purified. An Alexa647-labeled BET-inhibitor was used as the fluorescent probe in the assay.
(§2) Compound dilution series were prepared in DMSO via an approximately 3-fold serial dilution from one of the following:
Assay method A: 250 μM-4.2 nM
Assay method B: 0.47 mM to 7.8 nM
Assay method C: 500 μM-8.5 nM
(§3) Assay method D: 2.5 mM-800 nM
Assay method E: 0.047 mM to 0.78 nM or 5-fold serial dilution from Assay method D
For Assay methods A, C, and D: Compounds were then diluted 6:100 in assay buffer (20 mM Sodium Phosphate, pH 6.0, 50 mM NaCl, 1 mM Ethylenediaminetetraacetic acid, 0.01% Triton X-100, 1 mM DL-Dithiothreitol) to yield 3× working solutions. Six microliters (μL) of the working solution was then transferred to white, low-volume assay plates (Costar #3673). A 1.5× assay mixture containing His-tagged bromodomain, Europium-conjugated anti-His antibody (Invitrogen PV5596) and the Alexa-647-conjugated probe molecule was also prepared. Twelve μL of this solution were added to the assay plate to reach a final volume of 18 μL.
For Assay methods B and E: Compound dilutions were added directly into white, low-volume assay plates (Perkin Elmer Proxiplate 384 Plus #6008280) using a Labcyte Echo in conjunction with Labcyte Access and Thermo Multidrop CombinL robotics. Compounds were then suspended in eight microliters (μL) of assay buffer (20 mM Sodium Phosphate, pH 6.0, 50 mM NaCl, 1 mM Ethylenediaminetetraacetic acid disodium salt dihydrate, 0.01% Triton X-100, 1 mM DL-Dithiothreitol) containing His-tagged bromodomain, Europium-conjugated anti-His antibody (Invitrogen PV5596) and Alexa-647-conjugated probe.
The final concentration of 1× assay mixture for assay methods A, B, C, D, and E contains 2% DMSO, 8 nM His-tagged bromodomain, 1 nM Europium-conjugated anti-His-tag antibody and 100 nM or 30 nM probe (for BDI or BDII, respectively) and compound concentration in the range of: 5 μM-85 pM for method A, 9.19 μM 150 pM for method B, 10 μM-169 pM for method C, 50 μM-16 nM for method D, and 0.92 μM-15 pM for method E.
After a one-hour equilibration at room temperature, TR-FRET ratios were determined using an Envision multilabel plate reader (Ex 340, Em 495/520).
TR-FRET data were normalized to the means of 24 no-compound controls (“high”) and 8 controls containing 1 μM un-labeled probe (“low”). Percent inhibition was plotted as a function of compound concentration and the data were fit with the 4 parameter logistic equation to obtain IC50s Inhibition constants (Ki) were calculated from the IC50s, probe Kd and probe concentration. Typical Z′ values were between 0.65 and 0.75. The minimum significant ratio was determined to evaluate assay reproducibility (Eastwood et al., (2006) J Biomol Screen, 11: 253-261). The MSR was determined to be 2.03 for BDI and 1.93 for BDII, and a moving MSR (last six run MSR overtime) for both BDI and BDII was typically <3.

Another test addresses T2, BRD4 (BDII_E352-M457) (Homo sapiens, UniProt O60885).
T2 construct: proliferation; Protocol; made in house
Put plainly: TR-FRET bromodomain binding assay, second bromodomain of BRD4. The settings on record: His-tagged BD2, 30 nM Alexa647 probe; TR-FRET protocol A-E given per row. The protocol:
as §1, §2, §3
For Assay methods A, C, and D: Compounds were then diluted 6:100 in assay buffer (20 mM Sodium Phosphate, pH 6.0, 50 mM NaCl, 1 mM Ethylenediaminetetraacetic acid, 0.01% Triton X-100, 1 mM DL-Dithiothreitol) to yield 3× working solutions. […] Twelve μL of this solution were added to the assay plate to reach a final volume of 18 μL.
TR-FRET data were normalized to the means of 24 no-compound controls (“high”) and 8 controls containing 1 μM un-labeled probe (“low”). Percent inhibition was plotted as a function of compound concentration and the data were fit with the 4 parameter logistic equation to obtain IC50s Inhibition constants (Ki) were calculated from the IC50s, probe Kd and probe concentration. Typical Z′ values were between 0.65 and 0.75.
(In general: TR-FRET usually uses a lanthanide donor and a delayed reading to cut background.)

Usually Ki stands for the dissociation constant of the complex between target and ligand, obtained from inhibition or displacement. Read a high Ki as weaker binding.

Some results are limits rather than exact numbers.

In the case of `Cn1cc(-c2cc(NC(=O)Cn3cc(-c4ccccc4F)cn3)ccc2Oc2ccc(F)cc2F)c2cc[nH]c(=O)c21` [Example 165, N-[4-(2,4-difluorophenoxy)-3-(1-methyl-7-oxo-6,7-dihydro-1H-pyrrolo[2,3-c]pyridin-3-yl)phenyl]-2-[4-(2-fluorophenyl)-1H-pyrazol-1-yl]acetamide], the Ki at BRD4 (BDI_K57-E168) is 214 nM; at BRD4 (BDII_E352-M457), 105 nM.

In the case of `CC(C)CCC(=O)Nc1ccc(Oc2ccc(F)cc2F)c(-c2cn(C)c3c(=O)[nH]ccc23)c1` [Example 147, N-[4-(2,4-difluorophenoxy)-3-(1-methyl-7-oxo-6,7-dihydro-1H-pyrrolo[2,3-c]pyridin-3-yl)phenyl]-4-methylpentanamide], the values for the Ki at BRD4 (BDI_K57-E168) and at BRD4 (BDII_E352-M457) were 59.4 nM and 134 nM, respectively.

With `CCS(=O)(=O)Nc1ccc(Oc2ccc(F)cc2F)c(-c2cn(C)c3c(=O)[nH]c(C(=O)NCc4ccoc4)cc23)c1` [Example 201, 3-{2-(2,4-difluorophenoxy)-5-[(ethylsulfonyl)amino]phenyl}-N-(furan-3-ylmethyl)-1-methyl-7-oxo-6,7-dihydro-1H-pyrrolo[2,3-c]pyridine-5-carboxamide], the inhibition constant Ki at BRD4 (BDI_K57-E168) is 3.47 nM; on BRD4 (BDII_E352-M457), 11.4 nM.

For the compound `CNC(=O)c1cc2c(-c3cn(C)c4c(=O)[nH]ccc34)c(OCC3CC3)ccc2[nH]1` [Example 107, 5-(cyclopropylmethoxy)-N-methyl-4-(1-methyl-7-oxo-6,7-dihydro-1H-pyrrolo[2,3-c]pyridin-3-yl)-1H-indole-2-carboxamide], the figures for the Ki on BRD4 (BDI_K57-E168) and on BRD4 (BDII_E352-M457) were more than 2380 nM and 407 nM, respectively.

Take `Cn1cc(-c2cc(F)cnc2Nc2ccc(F)cc2)c2cc[nH]c(=O)c21` [Example 145, 3-{5-fluoro-2-[(4-fluorophenyl)amino]pyridin-3-yl}-1-methyl-1,6-dihydro-7H-pyrrolo[2,3-c]pyridin-7-one]: the Ki on BRD4 (BDI_K57-E168) turned out to be 174 nM; on BRD4 (BDII_E352-M457) it was 296 nM.

`CCS(=O)(=O)c1ccc(Oc2cncc(C)n2)c(-c2cn(C)c3c(=O)[nH]ccc23)c1` [Example 86, 3-{5-(ethylsulfonyl)-2-[(6-methylpyrazin-2-yl)oxy]phenyl}-1-methyl-1,6-dihydro-7H-pyrrolo[2,3-c]pyridin-7-one]: the Ki on BRD4 (BDI_K57-E168) was determined as 697 nM; on BRD4 (BDII_E352-M457), 764 nM.

Consider `Cn1cc(-c2cc(S(C)(=O)=O)ccc2NCC2CCCCC2)c2cc[nH]c(=O)c21` [Example 47, 3-{2-[(cyclohexylmethyl)amino]-5-(methylsulfonyl)phenyl}-1-methyl-1,6-dihydro-7H-pyrrolo[2,3-c]pyridin-7-one], for which the inhibition constant (Ki) at BRD4 (BDI_K57-E168) was 33 nM; on BRD4 (BDII_E352-M457) it was 124 nM.

On to `Cn1cc(-c2cc(CS(C)(=O)=O)cnc2Cl)c2cc[nH]c(=O)c21` [Example 143, 3-{2-chloro-5-[(methylsulfonyl)methyl]pyridin-3-yl}-1-methyl-1,6-dihydro-7H-pyrrolo[2,3-c]pyridin-7-one], for which the inhibition constant Ki was determined as 446 nM on BRD4 (BDI_K57-E168) and 1680 nM on BRD4 (BDII_E352-M457).

As to `Cn1cc(-c2cc(S(C)(=O)=O)ccc2NCC(F)(F)F)c2cc[nH]c(=O)c21` [Example 69, 1-methyl-3-{5-(methylsulfonyl)-2-[(2,2,2-trifluoroethyl)amino]phenyl}-1,6-dihydro-7H-pyrrolo[2,3-c]pyridin-7-one], the values for the inhibition constant (Ki) on BRD4 (BDI_K57-E168) and on BRD4 (BDII_E352-M457) were 773 nM and 2290 nM, respectively.

Regarding `CCS(=O)(=O)c1ccc(Oc2cnc(C)cc2C)c(-c2cn(C)c3c(=O)[nH]ccc23)c1` [Example 75, 3-{2[(4,6-dimethylpyridin-3-yl)oxy]-5-(ethylsulfonyl)phenyl}-1-methyl-1,6-dihydro-7H-pyrrolo[2,3-c]pyridin-7-one], the Ki turned out to be 131 nM on BRD4 (BDI_K57-E168) and 42 nM at BRD4 (BDII_E352-M457).

On to `CC(C)CCNCc1ccc(Oc2ccc(F)cc2F)c(-c2cn(C)c3c(=O)[nH]ccc23)c1` [Example 117, 3-[2-(2,4-difluorophenoxy)-5-{[(3-methylbutyl)amino]methyl}phenyl]-1-methyl-1,6-dihydro-7H-pyrrolo[2,3-c]pyridin-7-one], for which the Ki at BRD4 (BDI_K57-E168) turned out to be 776 nM; on BRD4 (BDII_E352-M457) it was 750 nM.

On to `Cc1ccc(CC(=O)Nc2ccc(Oc3ccc(F)cc3F)c(-c3cn(C)c4c(=O)[nH]ccc34)c2)cn1` [Example 161, N-[4-(2,4-difluorophenoxy)-3-(1-methyl-7-oxo-6,7-dihydro-1H-pyrrolo[2,3-c]pyridin-3-yl)phenyl]-2-(6-methylpyridin-3-yl)acetamide], for which the results for the Ki at BRD4 (BDI_K57-E168) and at BRD4 (BDII_E352-M457) were more than 238 nM and 79.1 nM, respectively.

`Cn1cc(-c2cc(S(C)(=O)=O)ccc2OC2Cc3ccccc3C2)c2cc[nH]c(=O)c21` [Example 38, 3-[2-(2,3-dihydro-1H-inden-2-yloxy)-5-(methylsulfonyl)phenyl]-1-methyl-1,6-dihydro-7H-pyrrolo[2,3-c]pyridin-7-one]: the figures for the inhibitory constant (Ki) on BRD4 (BDI_K57-E168) and at BRD4 (BDII_E352-M457) were 90 nM and 435 nM, respectively.

As to `CCS(=O)(=O)c1ccc(Oc2ccncc2)c(-c2cn(C)c3c(=O)[nH]ccc23)c1` [Example 74, 3-[5-(ethylsulfonyl)-2-(pyridin-4-yloxy)phenyl]-1-methyl-1,6-dihydro-7H-pyrrolo[2,3-c]pyridin-7-one], the values for the Ki on BRD4 (BDI_K57-E168) and at BRD4 (BDII_E352-M457) were more than 2380 nM and 388 nM, respectively.

In the case of `Cn1cc(-c2cc(S(C)(=O)=O)ccc2OCCC2CCCC2)c2cc[nH]c(=O)c21` [Example 35, 3-[2-(2-cyclopentylethoxy)-5-(methylsulfonyl)phenyl]-1-methyl-1,6-dihydro-7H-pyrrolo[2,3-c]pyridin-7-one], the results for the inhibition constant (Ki) at BRD4 (BDI_K57-E168) and on BRD4 (BDII_E352-M457) were 42 nM and 111 nM, respectively.

`Cc1c[nH]c(=O)c2c1c(-c1cc(S(C)(=O)=O)ccc1OCCC1CC1)cn2C` [Example 124, 3-[2-(2-cyclopropylethoxy)-5-(methylsulfonyl)phenyl]-1,4-dimethyl-1,6-dihydro-7H-pyrrolo[2,3-c]pyridin-7-one]: the inhibition constant (Ki) on BRD4 (BDI_K57-E168) worked out at 127 nM; on BRD4 (BDII_E352-M457), 104 nM.

`CCS(=O)(=O)c1ccc(Oc2cccnc2)c(-c2cn(C)c3c(=O)[nH]ccc23)c1` [Example 81, 3-[5-(ethylsulfonyl)-2-(pyridin-3-yloxy)phenyl]-1-methyl-1,6-dihydro-7H-pyrrolo[2,3-c]pyridin-7-one]: the inhibitory constant (Ki) is 81 nM on BRD4 (BDI_K57-E168) and 100 nM at BRD4 (BDII_E352-M457).

Take `CCS(=O)(=O)c1ccc(Oc2ccc(C#N)cc2OC)c(-c2cn(C)c3c(=O)[nH]ccc23)c1` [Example 80, 4-[4-(ethylsulfonyl)-2-(1-methyl-7-oxo-6,7-dihydro-1H-pyrrolo[2,3-c]pyridin-3-yl)phenoxy]-3-methoxybenzonitrile]: the inhibition constant Ki on BRD4 (BDI_K57-E168) was 56 nM; at BRD4 (BDII_E352-M457) it was 53 nM.

For the compound `Cn1cc(-c2cc(NCc3cccc(C#N)c3)ccc2Oc2ccc(F)cc2F)c2cc[nH]c(=O)c21` [Example 172, 3-({[4-(2,4-difluorophenoxy)-3-(1-methyl-7-oxo-6,7-dihydro-1H-pyrrolo[2,3-c]pyridin-3-yl)phenyl]amino}methyl)benzonitrile], the Ki worked out at 71 nM at BRD4 (BDI_K57-E168) and 226 nM on BRD4 (BDII_E352-M457).
